Test results as given in ChEMBL document CHEMBL1142324, “Synthesis and cerebral uptake of 1-(1-[(11)C]methyl-1H-pyrrol-2-yl)-2-phenyl-2-(1-pyrrolidinyl)ethanone, a novel tracer for positron emission tomography studies of monoamine oxidase type A” (J Med Chem, 2008).

Legend:
Assay type in all cases: ADME, organism-based, Sus scrofa
Details in all cases: read-out: Stability
[1] = Metabolic stability in iv dosed pig plasma after 50 mins
[2] = Metabolic stability in iv dosed pig plasma after 10 mins
[3] = Metabolic stability in iv dosed pig plasma after 30 mins
[4] = Metabolic stability in iv dosed pig plasma after 2 mins
[5] = Metabolic stability in iv dosed pig plasma after 30 seconds

remaining at 50 min [1] [%] | remaining at 10 min [2] [%] | remaining at 0.5 h [3] [%] | remaining at 2 min [4] [%] | remaining at 0.5 min [5] [%] | Structure (SMILES)
24 | 68 | 41 | 98 | 99.7 | [11CH3]n1cccc1C(=O)[C@H](c1ccccc1)N1CCCC1
24 | 68 | 41 | 98 | 99.7 | [11CH3]n1cccc1C(=O)[C@@H](c1ccccc1)N1CCCC1
